How the values were obtained:
SIRT1 [1] = molecular target: T1, SIRT1 (Homo sapiens, UniProt Q96EB6); test: CETSA in MCF7 cells (Tm raised from […] °C to […] °C); format: cell-based; parameters: endogenous SIRT1 in MCF7 cells
T1 sequence (Q96EB6 2-747): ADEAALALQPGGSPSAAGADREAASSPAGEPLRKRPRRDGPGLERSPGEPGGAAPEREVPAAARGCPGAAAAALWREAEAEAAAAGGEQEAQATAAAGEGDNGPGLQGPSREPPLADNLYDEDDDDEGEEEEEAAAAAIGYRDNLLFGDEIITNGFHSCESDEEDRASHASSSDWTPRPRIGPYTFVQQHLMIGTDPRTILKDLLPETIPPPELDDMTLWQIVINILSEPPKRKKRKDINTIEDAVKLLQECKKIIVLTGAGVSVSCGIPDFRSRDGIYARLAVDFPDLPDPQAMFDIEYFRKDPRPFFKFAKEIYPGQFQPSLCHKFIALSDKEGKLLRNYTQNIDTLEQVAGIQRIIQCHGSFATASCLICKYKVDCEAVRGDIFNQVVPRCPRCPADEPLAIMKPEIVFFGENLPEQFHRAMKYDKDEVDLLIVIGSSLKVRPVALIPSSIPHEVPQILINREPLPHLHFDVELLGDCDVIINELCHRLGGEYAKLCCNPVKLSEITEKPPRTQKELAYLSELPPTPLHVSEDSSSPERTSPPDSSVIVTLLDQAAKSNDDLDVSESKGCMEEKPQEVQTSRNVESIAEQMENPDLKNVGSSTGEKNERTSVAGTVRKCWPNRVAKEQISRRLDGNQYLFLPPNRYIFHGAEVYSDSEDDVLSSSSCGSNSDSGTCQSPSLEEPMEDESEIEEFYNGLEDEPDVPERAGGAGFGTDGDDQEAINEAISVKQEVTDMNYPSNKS

SIRT1 [2] = molecular target: T1, SIRT1; test: NMase-coupled fluorescence deacetylase assay (activation, AC50) on purified SIRT1; binding supported by tyrosine fluorescence quenching and CETSA in MCF7 cells; format: biochemical; parameters: SIRT1-GST purified from E. coli BL21 (full-length SIRT1 after thrombin cleavage for fluorescence quenching); conditions: read-out: EC50 (the source's name)

| Compound | CETSA in MCF7 cells (Tm raised from 46.5 °C to 51.4 °C) (SIRT1 [1]) | AC50 (SIRT1 [2]) |
| --- | --- | --- |
| Oc1ccc(/C=C/c2cc(O)cc(O)c2)cc1 [RSV, resveratrol] | 51.4 °C |  |
| ISIDE11 |  | 20.11 ± 0.15 µM |

Source: paper PMC9276577, “SIRT1 pharmacological activation rescues vascular dysfunction and prevents thrombosis in MTHFR deficiency” (Cellular and Molecular Life Sciences: CMLS, 2022)
